Molecules are shown by their SMILES.

In this assay the target is TBK1 (Homo sapiens (Human), UniProt Q9UHD2). As to the kind of experiment: TBK1 low ATP kinase assay (in vitro assay 1). The class given is biochemical. The note with it: in vitro assay 1, read-out: TBK1 low ATP kinase assay IC50.
Sequence of TBK1 (Q9UHD2 whole entry): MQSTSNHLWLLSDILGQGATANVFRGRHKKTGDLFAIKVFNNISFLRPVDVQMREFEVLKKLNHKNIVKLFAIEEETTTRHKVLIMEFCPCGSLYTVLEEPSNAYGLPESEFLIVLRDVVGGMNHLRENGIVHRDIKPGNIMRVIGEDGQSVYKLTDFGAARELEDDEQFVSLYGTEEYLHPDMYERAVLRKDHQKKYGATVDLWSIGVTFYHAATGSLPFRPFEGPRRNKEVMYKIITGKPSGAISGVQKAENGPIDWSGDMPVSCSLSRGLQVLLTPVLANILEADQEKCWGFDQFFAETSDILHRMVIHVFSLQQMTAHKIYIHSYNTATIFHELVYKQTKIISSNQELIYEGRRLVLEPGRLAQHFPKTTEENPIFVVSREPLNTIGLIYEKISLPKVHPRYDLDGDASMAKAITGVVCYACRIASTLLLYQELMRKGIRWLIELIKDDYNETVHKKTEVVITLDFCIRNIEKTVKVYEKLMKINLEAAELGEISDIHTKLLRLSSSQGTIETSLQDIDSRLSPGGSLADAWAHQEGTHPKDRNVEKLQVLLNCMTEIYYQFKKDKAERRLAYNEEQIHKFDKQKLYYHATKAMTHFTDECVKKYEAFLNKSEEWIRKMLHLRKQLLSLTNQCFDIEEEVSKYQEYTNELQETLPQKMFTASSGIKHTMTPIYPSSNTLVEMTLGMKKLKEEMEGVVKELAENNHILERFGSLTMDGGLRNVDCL
In the case of `COc1c(NC2CCC2)ncnc1-c1ccc2nc(Nc3cc(C(C)N4CCN(C(=O)CC(F)(F)F)CC4)ccn3)[nH]c2c1` (single isomer, unassigned) [Example 114.02, 1-(4-{(1R or 1S)-1-[2-({6-[6-(cyclobutylamino)-5-methoxypyrimidin-4-yl]-1H-benzimidazol-2-yl}amino)pyridin-4-yl]ethyl}piperazin-1-yl)-3,3,3-trifluoropropan-1-one], the 50% inhibitory concentration (IC50) came out at 8.27 nM.
For the compound `CCOc1nccc(-c2ccc3nc(Nc4cc(C(C)N5CCN(C(=O)CC(F)(F)F)CC5)ccn4)[nH]c3c2)n1` (single isomer, unassigned) [Example 26.03.01.A, 1-{4-[(1R or 1S)-1-(2-{[6-(2-ethoxypyrimidin-4-yl)-1H-benzimidazol-2-yl]amino}pyridin-4-yl)ethyl]piperazin-1-yl}-3,3,3-trifluoropropan-1-one], the half-maximal inhibitory concentration (IC50) turned out to be 2.98 nM.
Take `COc1c(C)ncnc1-c1ccc2nc(Nc3cc(C(C)N4CCN(C(=O)C5CC5)CC4)ccn3)[nH]c2c1` (single isomer, unassigned) [Example 83.04, cyclopropyl{4-[(1R or 1S)-1-(2-{[6-(5-methoxy-6-methylpyrimidin-4-yl)-1H-benzimidazol-2-yl]amino}pyridin-4-yl)ethyl]piperazin-1-yl}methanone]: the IC50 is 1.5 nM.
Regarding `COc1c(C)ncnc1-c1ccc2nc(Nc3cc(CN4CCN(C(=O)C5CC5)CC4)ccn3)[nH]c2c1` [Example 61.01.02, cyclopropyl{4-[(2-{[6-(5-methoxy-6-methylpyrimidin-4-yl)-1H-benzimidazol-2-yl]amino}pyridin-4-yl)methyl]piperazin-1-yl}methanone], the IC50 worked out at 23 nM.
For the compound `COc1cncnc1-c1ccc2nc(Nc3cc(C(C)N4CCN(C(=O)C5CCC5)CC4)ccn3)[nH]c2c1` (single isomer, unassigned) [Example 35.03.04.A, cyclobutyl{4-[(1R or 1S)-1-(2-{[6-(5-methoxypyrimidin-4-yl)-1H-benzimidazol-2-yl]amino}pyridin-4-yl)ethyl]piperazin-1-yl}methanone], the IC50 was determined as 8.38 nM.
The result for `COc1c(NC2CC2)ncnc1-c1ccc2nc(Nc3cc(CN4CCN(C(=O)C5CC5)CC4)ccn3)[nH]c2c1` [Example 108.03, cyclopropyl(4-{[2-({6-[6-(cyclopropylamino)-5-methoxypyrimidin-4-yl]-1H-benzimidazol-2-yl}amino)pyridin-4-yl]methyl}piperazin-1-yl)methanone] reads 8.9 nM; that for `CCN(CC)C(=O)N1CCN(Cc2ccnc(Nc3nc4ccc(-c5ncncc5OC)cc4[nH]3)c2)CC1` [Example 35.01.04, N,N-diethyl-4-[(2-{[6-(5-methoxypyrimidin-4-yl)-1H-benzimidazol-2-yl]amino}pyridin-4-yl)methyl]piperazine-1-carboxamide], 26.9 nM; that for `Cc1cnn(C)c1-c1ccc2nc(Nc3cc(C(C)N4CCN(C(=O)CC(F)(F)F)CC4)ccn3)[nH]c2c1` (single isomer, unassigned) [Example 73.01, 1-{4-[(1R or 1S)-1-(2-{[6-(1,4-dimethyl-1H-pyrazol-5-yl)-1H-benzimidazol-2-yl]amino}pyridin-4-yl)ethyl]piperazin-1-yl}-3,3,3-trifluoropropan-1-one], 67 nM.
In the case of `CNc1cc(-c2ccc3nc(Nc4cc(CN5CCN(C(=O)CC(F)(F)F)CC5)ccn4)[nH]c3c2)ncn1` [Example 150.02, 3,3,3-trifluoro-1-(4-{[2-({6-[6-(methylamino)pyrimidin-4-yl]-1H-benzimidazol-2-yl}amino)pyridin-4-yl]methyl}piperazin-1-yl)propan-1-one] it was 9.6 nM; in that of `Cc1noc(-c2ccc3nc(Nc4cc(CN5CCN(c6ccc(C#N)cc6)CC5)ccn4)[nH]c3c2)n1` [Example 101.18, 4-{4-[(2-{[6-(3-methyl-1,2,4-oxadiazol-5-yl)-1H-benzimidazol-2-yl]amino}pyridin-4-yl)methyl]piperazin-1-yl}benzonitrile], 1500 nM.
In the case of `COc1cncnc1-c1ccc2nc(Nc3cc(C(C)N4CCN(C(=O)CC(F)(F)F)CC4)ccn3)[nH]c2c1` (single isomer, unassigned) [Example 35.03.01.A, 3,3,3-trifluoro-1-{4-[(1R or 1S)-1-(2-{[6-(5-methoxypyrimidin-4-yl)-1H-benzimidazol-2-yl]amino}pyridin-4-yl)ethyl]piperazin-1-yl}propan-1-one] it was 3.85 nM.
On to `CC(C)(C)OC(=O)N1CCN(Cc2ccnc(Nc3nc4ccc(-c5ccnc(C(F)F)c5)cc4[nH]3)c2)CC1` [Example 139.01, tert-butyl 4-{[2-({6-[2-(difluoromethyl)pyridin-4-yl]-1H-benzimidazol-2-yl}amino)pyridin-4-yl]methyl}piperazine-1-carboxylate], for which the IC50 stood at 55 nM.
As to `Cc1ncc(-c2ccc3nc(Nc4cc(CN5CCN(C(=O)CC(F)(F)F)CC5)ccn4)[nH]c3c2)cn1` [Example 45.03.01, 3,3,3-trifluoro-1-{4-[(2-{[6-(2-methylpyrimidin-5-yl)-1H-benzimidazol-2-yl]amino}pyridin-4-yl)methyl]piperazin-1-yl}propan-1-one], the half-maximal inhibitory concentration (IC50) stood at 3790 nM.
Consider `CC(C)N(C)c1cc(-c2ccc3nc(Nc4cc(CN5CCN(C(=O)CC(F)(F)F)CC5)ccn4)[nH]c3c2)ncn1` [Example 153.02, 3,3,3-trifluoro-1-[4-({2-[(6-{6-[methyl(propan-2-yl)amino]pyrimidin-4-yl}-1H-benzimidazol-2-yl)amino]pyridin-4-yl}methyl)piperazin-1-yl]propan-1-one], for which the concentration for half-maximal inhibition (IC50) is 5.9 nM.
In the case of `CC(c1ccnc(Nc2nc3ccc(-c4cnn(CC5CC5(F)F)c4)cc3[nH]2)c1)N1CCN(C(=O)C2CC2)CC1` (single isomer, unassigned) [Example 55.03.02, cyclopropyl{4-[(1R or 1S)-1-(2-{[6-(1-{[(1R or 1S)-2,2-difluorocyclopropyl]methyl}-1H-pyrazol-4-yl)-1H-benzimidazol-2-yl]amino}pyridin-4-yl)ethyl]piperazin-1-yl}methanone], the IC50 came to 0.66 nM.
The result for `CCN(C)c1cc(-c2ccc3nc(Nc4cc(CN5CCN(C(=O)CC(F)(F)F)CC5)ccn4)[nH]c3c2)ncn1` [Example 148.02, 1-[4({2-[(6-{6-[ethyl(methyl)amino]pyrimidin-4-yl}-1H-benzimidazol-2-yl)amino]pyridin-4-yl}methyl)piperazin-1-yl]-3,3,3-trifluoropropan-1-one] reads 6.5 nM; that for `COc1nccc(-c2ccc3nc(Nc4cc(CN5CCN(C(=O)C6CC6)CC5)ccn4)[nH]c3c2)c1C` [Example 10.01, cyclopropyl{4-[(2-{[6-(2-methoxy-3-methylpyridin-4-yl)-1H-benzimidazol-2-yl]amino}pyridin-4-yl)methyl]piperazin-1-yl}methanone], 2260 nM; that for `Cc1ncc(C)c(-c2ccc3nc(Nc4cc(CN5CCN(C(=O)CC(F)(F)F)CC5)ccn4)[nH]c3c2)n1` [Example 33.02, 1-{4-[(2-{[6-(2,5-dimethylpyrimidin-4-yl)-1H-benzimidazol-2-yl]amino}pyridin-4-yl)methyl]piperazin-1-yl}-3,3,3-trifluoropropan-1-one], 1590 nM.
In the case of `Cc1cc(-c2ccc3nc(Nc4cc(C(C)N5CCN(C(=O)C6CCC6)CC5)ccn4)[nH]c3c2)ncn1` (single isomer, unassigned) [Example 30.03.02.B, cyclobutyl{4-[(1S or 1R)-1-(2-{[6-(6-methylpyrimidin-4-yl)-1H-benzimidazol-2-yl]amino}pyridin-4-yl)ethyl]piperazin-1-yl}methanone], the 50% inhibitory concentration (IC50) turned out to be 27.5 nM.
As for `O=C(C1CC1)N1CCN(Cc2ccnc(Nc3nc4ccc(-c5nc(C6CC6)no5)cc4[nH]3)c2)CC1` [Example 17.05, cyclopropyl{4-[(2-{[6-(3-cyclopropyl-1,2,4-oxadiazol-5-yl)-1H-benzimidazol-2-yl]amino}pyridin-4-yl)methyl]piperazin-1-yl}methanone], the half-inhibitory concentration (IC50) turned out to be 38.2 nM.
In the case of `CCOc1c(-c2ccncc2OC)ccc2nc(Nc3cc(CN4CCN(C(=O)CC5CC5)CC4)ccn3)[nH]c12` [Example 51.02, 2-cyclopropyl-1-{4-[(2-{[7-ethoxy-6-(3-methoxypyridin-4-yl)-1H-benzimidazol-2-yl]amino}pyridin-4-yl)methyl]piperazin-1-yl}ethanone] it was 270 nM; in that of `CC(c1ccnc(Nc2nc3ccc(-c4cc(OCC(F)(F)C(F)(F)F)ncn4)cc3[nH]2)c1)N1CCN(C(=O)[C@@H]2CC2(F)F)CC1` (single isomer, unassigned) [Example 166.05, ((1RS)-2,2-difluorocyclopropyl)(4-{(1R or 1S)-1-[2-({6-[6-(2,2,3,3,3-pentafluoropropoxy)pyrimidin-4-yl]-1H-benzimidazol-2-yl}amino)pyridin-4-yl]ethyl}piperazin-1-yl)methanone], 34.2 nM; in that of `COc1cncnc1-c1ccc2nc(Nc3cc(C(C)N4CCN(C(=O)CC5CC5)CC4)ccn3)[nH]c2c1` (single isomer, unassigned) [Example 35.03.02.A, 2-cyclopropyl-1-{4-[(1R or 1S)-1-(2-{[6-(5-methoxypyrimidin-4-yl)-1H-benzimidazol-2-yl]amino}pyridin-4-yl)ethyl]piperazin-1-yl}ethanone], 8.33 nM.
Regarding `CC(c1ccnc(Nc2nc3cc(-c4cc(C(F)(F)F)nn4C)ccc3[nH]2)c1)N1CCN(C(=O)OC(C)(C)C)CC1` (single isomer, unassigned) [Example 88.01, tert-butyl 4-{(1R or 1S)-1-[2-({6-[1-methyl-3-(trifluoromethyl)-1H-pyrazol-5-yl]-1H-benzimidazol-2-yl}amino)pyridin-4-yl]ethyl}piperazine-1-carboxylate], the IC50 was 11000 nM.
Take `O=C(C1CC1)N1CCN(Cc2ccnc(Nc3nc4ccc(-c5cc(OCC6CC6)ncn5)cc4[nH]3)c2)CC1` [Example 80.03, cyclopropyl(4-{[2-({6-[6-(cyclopropylmethoxy)pyrimidin-4-yl]-1H-benzimidazol-2-yl}amino)pyridin-4-yl]methyl}piperazin-1-yl)methanone]: the half-inhibitory concentration (IC50) worked out at 2.9 nM.
The result for `CCS(=O)(=O)N1CCN(Cc2ccnc(Nc3nc4ccc(-c5ncncc5OC)cc4[nH]3)c2)CC1` [Example 35.01.08, N-(4-{[4-(ethylsulfonyl)piperazin-1-yl]methyl}pyridin-2-yl)-6-(5-methoxypyrimidin-4-yl)-1H-benzimidazol-2-amine] reads 24.3 nM.

The IC50 is the midpoint of a concentration-inhibition curve.

For the origin of these results see patent publication US10894784B2, “Heteroarylbenzimidazole compounds” (BAYER PHARMA AKTIENGESELLSCHAFT, priority 2015, dated 2021).
